In ChEMBL document CHEMBL6134813, “Arctigenin derivative TZOA restores mitochondrial homeostasis to combat rhabdovirus infections” (Eur J Med Chem, 2025):
Activity calls are given as the source filed them. The rule behind the calls is not given here.

Columns and labels:
[1] = tested on: Infectious hematopoietic necrosis virus; test: (§1) Antiviral activity against IHNV infected in juvenile rainbow trout assessed as decrease in viral G gene expression in kidney of recipient fishes on horizontal transmission between virus-infected donor fishes and non-infected recipient fishes at 25 uM immersed together in compound for 48 hrs by qPCR analysis; type: functional, organism-based
[2] = tested on: Infectious hematopoietic necrosis virus; test: Antiviral activity against IHNV infected in EPC cells (unknown origin) assessed as uniform sized nuclei at 25 uM measured after 72 hrs by fluorescence microscopy; type: functional, organism-based
[3] = tested on: Infectious hematopoietic necrosis virus; test: Antiviral activity against IHNV infected in EPC cells (unknown origin) assessed as reduction in viral G protein expression at 25 uM pretreated virus with compound for 2 hrs followed by compound-treated virus infection in EPC cells measured after 72 hrs by RT-qPCR analysis relative to control; type: functional; design: scale not given: the % may be the effect or the level left
[4] = tested on: Infectious hematopoietic necrosis virus; test: Antiviral activity against IHNV infected in EPC cells (unknown origin) assessed as reduction in viral G protein expression at 25 uM pretreated virus with compound for 4 hrs followed by compound-treated virus infection in EPC cells measured after 72 hrs by RT-qPCR analysis relative to control; type: functional; design: scale not given: the % may be the effect or the level left
[5] = tested on: Infectious hematopoietic necrosis virus; test: Antiviral activity against IHNV infected in EPC cells (unknown origin) assessed as inhibition of viral M gene expression measured after 72 hrs by RT-qPCR analysis; type: functional, organism-based; conditions: dose 0.1-100 µM
[6] = tested on: Infectious hematopoietic necrosis virus; test: Antiviral activity against IHNV infected in EPC cells (unknown origin) assessed as inhibition of viral N gene expression measured after 72 hrs by RT-qPCR analysis; type: functional, organism-based; conditions: dose 0.1-100 µM
[7] = tested on: Infectious hematopoietic necrosis virus; test: Antiviral activity against IHNV infected in juvenile rainbow trout assessed as increase in IFN-1 gene expression in spleen administered intraperitoneally measured after 2 days by RT-qPCR analysis; type: functional, organism-based; conditions: route ip, time 2.0 day
[8] = tested on: Infectious hematopoietic necrosis virus; test: Antiviral activity against IHNV infected in juvenile rainbow trout assessed as decrease in hemorrhage in spleen administered intraperitoneally measured after 2 days by H and E staining based analysis; type: functional, organism-based; conditions: route ip, time 2.0 day
[9] = tested on: Infectious hematopoietic necrosis virus; test: Antiviral activity against IHNV infected in juvenile rainbow trout assessed as increase in ISG15 gene expression in kidney administered intraperitoneally measured after 2 days by RT-qPCR analysis; type: functional, organism-based; conditions: route ip, time 2.0 day
[10] = tested on: Infectious hematopoietic necrosis virus; test: Antiviral activity against IHNV infected in juvenile rainbow trout assessed as increase in Mx1 gene expression in kidney administered intraperitoneally measured after 2 days by RT-qPCR analysis; type: functional, organism-based; conditions: route ip, time 2.0 day
[11] = tested on: Infectious hematopoietic necrosis virus; test: Antiviral activity against IHNV infected in EPC cells (unknown origin) assessed as elongated rod-shaped mitochondria with double layered membrane by TEM analysis; type: functional, organism-based
[12] = tested on: Infectious hematopoietic necrosis virus; test: Antiviral activity against IHNV infected in juvenile rainbow trout assessed as increase in survival rate administered intraperitoneally measured for 14 days relative to control; type: functional; conditions: route ip; time 14 day
[13] = tested on: Infectious hematopoietic necrosis virus; test: Antiviral activity against IHNV infected in EPC cells (unknown origin) assessed as reduction in viral G protein expression at 25 uM pretreated virus with compound for 1 hr followed by compound-treated virus infection in EPC cells measured after 72 hrs by RT-qPCR analysis relative to control; type: functional; design: scale not given: the % may be the effect or the level left
[14] = tested on: Infectious hematopoietic necrosis virus; test: Antiviral activity against IHNV infected in juvenile rainbow trout assessed as increase in IFN-1 gene expression in kidney administered intraperitoneally measured after 2 days by RT-qPCR analysis; type: functional, organism-based; conditions: route ip, time 2.0 day
[15] = Cytotoxicity against EPC cells (unknown origin) assessed as cell viability up to 25 uM measured after 72 hrs by CCK8 assay; type: toxicity, cell-based
[16] = tested on: Infectious hematopoietic necrosis virus; test: Antiviral activity against IHNV infected in juvenile rainbow trout assessed as decrease in erythrocytes in kidney administered intraperitoneally measured after 2 days by H and E staining based analysis; type: functional, organism-based; conditions: route ip, time 2.0 day
[17] = tested on: Infectious hematopoietic necrosis virus; test: Antiviral activity against IHNV infected in EPC cells (unknown origin) assessed as mtDNA intact with mitochondria at 25 uM incubated for 72 hrs by TOMM20 dye based analysis; type: functional, organism-based
[18] = tested on: Infectious hematopoietic necrosis virus; test: Antiviral activity against IHNV infected in EPC cells (unknown origin) assessed as increase in cell proliferation at 4 uM measured after 72 hrs by CCK8 assay relative to control; type: functional
[19] = tested on: Infectious hematopoietic necrosis virus; test: Antiviral activity against IHNV infected in EPC cells (unknown origin) assessed as viral titer measured per 0.1 ml incubated for 96 hrs by Reed-Muench method (reference value: 1 10^7.77TCID50); type: functional
[20] = tested on: Infectious hematopoietic necrosis virus; test: Antiviral activity against IHNV infected in juvenile rainbow trout assessed as decrease in viral titer in recipient fishes on horizontal transmission between virus-infected donor fishes and non-infected recipient fishes at 25 uM immersed together in compound for 48 hrs; type: functional, organism-based
[21] = tested on: Infectious hematopoietic necrosis virus; test: Antiviral activity against IHNV infected in EPC cells (unknown origin) assessed as smooth outer membrane in mitochondria by TEM analysis; type: functional, organism-based
[22] = tested on: Infectious hematopoietic necrosis virus; test: Antiviral activity against IHNV infected in EPC cells (unknown origin) assessed as unchanged morphology in host cells at 25 uM pretreated virus with compound for 4 hrs followed by compound-treated virus infection in EPC cells measured after 72 hrs by microscopic analysis; type: functional, organism-based
[23] = tested on: Infectious hematopoietic necrosis virus; test: Antiviral activity against IHNV infected in EPC cells (unknown origin) assessed as increase in virus-reduced MAVS expression in cells by Western blot analysis; type: functional, organism-based
[24] = tested on: Infectious hematopoietic necrosis virus; test: Antiviral activity against IHNV infected in EPC cells (unknown origin) assessed as inhibition of viral N gene expression at 25 uM measured after 72 hrs by RT-qPCR analysis relative to control; type: functional
[25] = tested on: Infectious hematopoietic necrosis virus; test: Antiviral activity against IHNV infected in juvenile rainbow trout assessed as decrease in viral titer in donor fishes on horizontal transmission between virus-infected donor fishes and non-infected recipient fishes at 25 uM immersed together in compound for 48 hrs; type: functional, organism-based
[26] = tested on: Infectious hematopoietic necrosis virus; test: Antiviral activity against IHNV infected in juvenile rainbow trout assessed as decrease in viral G gene expression in kidney administered intraperitoneally measured after 1 to 4 days by RT-qPCR analysis; type: functional, organism-based; conditions: route ip, time 1-4 day
[27] = tested on: Infectious hematopoietic necrosis virus; test: Antiviral activity against IHNV infected in EPC cells (unknown origin) assessed as inhibition of viral replication at 25 uM preincubated for 24 hrs followed by viral infection measured after 72 hrs by RT-qPCR analysis; type: functional, organism-based; conditions: time 96.0 hrs
[28] = tested on: Infectious hematopoietic necrosis virus; test: Antiviral activity against IHNV infected in EPC cells (unknown origin) assessed as decrease in virus-induced number of individual mitochondria per cell at 25 uM incubated for 72 hrs by Mito-Tracker dye based analysis; type: functional, organism-based
[29] = tested on: Infectious hematopoietic necrosis virus; test: as §1, with “spleen” for “kidney”; type: functional, organism-based
[30] = tested on: Infectious hematopoietic necrosis virus; test: Antiviral activity against IHNV infected in EPC cells (unknown origin) assessed as reduction in virus-induced disruption of mitochondrial membrane potential at 25 uM incubated for 72 hrs by JC-1 dye based analysis; type: functional, organism-based

Structure (SMILES): COc1ccc(C[C@H]2COC(=O)[C@@H]2Cc2ccc(OCCCCCCCCn3cncn3)c(OC)c2)cc1OC
- Activity [1]: Active
- Activity [2]: Active
- Activity [3]: 24%
- Activity [4]: 67%
- inhibition [5]: Dose-dependent-effect
- inhibition [6]: Dose-dependent-effect
- Activity [7]: Active
- Activity [8]: Active
- Activity [9]: Active
- Activity [10]: Active
- Activity [11]: Active
- Survival [12]: 44%
- Activity [13]: 10%
- Activity [14]: Active
- Activity [15]: Non-toxic
- Activity [16]: Active
- Activity [17]: Active
- Activity [18]: >50%
- Activity [19]: 1 10^5.48TCID50
- Activity [20]: Active
- Activity [21]: Active
- Activity [22]: Active
- Activity [23]: Active
- inhibition at 25 µM [24]: > 90%
- Activity [25]: Active
- Activity [26]: Active
- inhibition [27]: Active
- Activity [28]: Active
- Activity [29]: Active
- Activity [30]: Active
